The pEC50 is the negative decadic logarithm of the EC50, by convention in mol/L.

Experiment [1] has as its target T1, α7 nAChRs (Homo sapiens, UniProt P36544).
T1 construct: IMR-32 cells endogenous expressing α7 nAChRs; host or cells: IMR-32 neuroblastoma cells
Briefly: High-throughput calcium flux (FLIPR) assay using IMR-32 cells expressing endogenous α7 nAChRs. Type of experiment: cell-based.
Description: (i) High-Throughput Calcium Flux Assays Using Cells Expressing Endogenous α7 nAChRs
As such, positive allosteric modulators can be identified or nicotinic acetylcholine receptor agonists can be identified by using IMR-32 cells that endogenously express various nicotinic receptors including α7 nAChRs. […] Accordingly, allosteric modulator compounds described herein can be identified using fluorescence-based throughput functional assay using cell lines such as IMR-32 neuroblastoma or primary dissociated neurons. Although cell types such as IMR-32 neuroblastoma and neurons are known to contain several nicotinic receptor subunits, α7 selective agonists in the present assay selectively stimulate calcium responses only in the presence of positive allosteric modulators. Any suitable selective α7 agonist can be used.
IMR-32 neuroblastoma cells (ATCC) were grown to confluency in 162 cm^2 tissue culture flasks in minimum essential media supplemented with 10% FBS and 1 mM sodium pyruvate, 0.1 mM non-essential amino acids and 1% antibiotic-antimycotic. The cells were then dissociated using cell dissociation buffer and 40 μl of 3.5×10^5 cells/ml cell suspension was plated (15,000 cells/well) into black plates with clear bottom and maintained for 48 hours in a tissue culture incubator at 37° C. under an atmosphere of 5% CO2: 95% air. […] Calcium flux was measured using calcium-3 assay kit (Molecular Devices, Sunnyvale, Calif.) or fluo-4. A stock solution of the dye was prepared by dissolving each vial supplied by the vendor in Hank's balanced salt solution buffer (HBSS) containing 20 mM HEPES. The stock solution was diluted 1:20 using the same buffer before use. The growth media was removed from the cells and loaded with 45 μl of the dye and incubated at room temperature for three hours. Fluorescence measurements were read simultaneously from all the wells by a Fluorometic Imaging Plate Reader (FLIPR) at an excitation wavelength of 480 nm and an emission wavelength of 520 nm. Baseline fluorescence was measured for the first 10 seconds at which 5× concentrations of modulator/test compounds were added to the cell plate and incubated for three minutes. The fluorescence intensity was captured every second for the first 1 minute followed by every 5 seconds for an additional 2 minutes. This procedure was followed by 20 μl of 4× concentration of agonist and readings were taken for a period of three minutes as described above.

Experiment [2] addresses T2, α7 nAChRs (Rattus norvegicus, UniProt Q05941).
T2 construct: cells expressing endogenous α7 nAChRs without the need for overexpressing recombinant receptors; host or cells: PC-12 rat pheochromocytoma cells
Briefly: High-throughput phospho-ERK assay (in-cell western) using PC-12 cells expressing endogenous α7 nAChRs. The settings on record: in presence of selective α7 agonist, FIG. 4. The experiment is classed as cell-based. How it is done: To determine the effectiveness of compounds of formula (I) or (II), as allosteric modulators, the compounds of the invention were evaluated according to two high-throughput functional assays using (i) IMR-32 cells endogenous expressing α7 nAChRs and measuring Ca^2+ flux or membrane potential changes utilizing the fluorescence-imaging plate reader (FLIPR)-based assays and (ii) measurement of phospho-ERK activity using western blot assays. These assays allow for higher throughput screening of positive allosteric modulators using cells or cell lines expressing endogenous α7 nAChRs.
(ii) High-Throughput Phospho-Erk Assays Using Cells Expressing Endogenous α7 nAChRs
Rat pheochromocytoma (PC-12) cells (ATCC, Manassas, Va.) were cultured and maintained in F-12K media supplemented with 15% horse serum, 2.5% fetal calf serum, and 2 mM L-Glutamine in poly-D lysine coated dishes at 37° C. and 5% CO2. […]
PC-12 cells are treated for 10 minutes at 37° C. with test positive allosteric modulator compounds and then challenged with a selective α7 agonist for 5 minutes at 37° C. in a final volume of 100 μl/well, unless otherwise indicated. […] Well intensities were quantitated and phospho-ERK signals were normalized to total ERK signals by the Odyssey software. […]

pEC50: −log10 of the molar value.

T1 sequence (P36544 23-502): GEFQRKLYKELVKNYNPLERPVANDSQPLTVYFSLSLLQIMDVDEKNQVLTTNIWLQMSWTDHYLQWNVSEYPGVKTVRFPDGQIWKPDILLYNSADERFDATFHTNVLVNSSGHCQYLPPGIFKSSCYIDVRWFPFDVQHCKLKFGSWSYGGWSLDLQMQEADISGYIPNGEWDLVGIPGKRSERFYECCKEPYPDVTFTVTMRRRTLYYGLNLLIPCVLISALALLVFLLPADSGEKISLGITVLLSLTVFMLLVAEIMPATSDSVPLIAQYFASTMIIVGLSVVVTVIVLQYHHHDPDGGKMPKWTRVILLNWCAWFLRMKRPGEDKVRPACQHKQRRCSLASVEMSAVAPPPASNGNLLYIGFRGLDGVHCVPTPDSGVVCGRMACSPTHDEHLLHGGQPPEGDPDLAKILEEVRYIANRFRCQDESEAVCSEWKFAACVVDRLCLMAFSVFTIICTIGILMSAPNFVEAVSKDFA
T2 sequence (Q05941 23-502): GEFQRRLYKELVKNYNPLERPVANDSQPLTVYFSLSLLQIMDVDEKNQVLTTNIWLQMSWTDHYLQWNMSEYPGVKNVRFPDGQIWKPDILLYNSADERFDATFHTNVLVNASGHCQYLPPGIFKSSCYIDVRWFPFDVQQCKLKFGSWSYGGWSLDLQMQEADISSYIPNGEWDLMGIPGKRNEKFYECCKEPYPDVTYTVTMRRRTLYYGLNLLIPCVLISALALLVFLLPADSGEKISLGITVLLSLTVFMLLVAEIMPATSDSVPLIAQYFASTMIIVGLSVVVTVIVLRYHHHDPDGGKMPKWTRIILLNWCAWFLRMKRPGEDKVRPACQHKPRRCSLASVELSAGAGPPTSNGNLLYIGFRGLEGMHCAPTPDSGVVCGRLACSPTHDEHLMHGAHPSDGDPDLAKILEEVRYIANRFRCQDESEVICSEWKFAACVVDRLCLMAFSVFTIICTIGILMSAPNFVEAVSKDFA

With `c1ccc(-c2nnc(N3CCN4CCC3CC4)o2)cc1` [4-(5-Phenyl-[1,3,4]oxadiazol-2-yl)-1,4-diaza-bicyclo[3.2.2]nonane, reference compound], the “calcium response, agonist alone” value in experiment [1] (IMR-32 cells, absence of allosteric modulator, FIG. 3) is “did not trigger calcium responses”.
For the compound `Cc1cn(-c2ccc3c(c2)OC(F)(F)O3)/c(=N/C(=O)N(C)C)s1` [Example 9, N′-[(2Z)-3-(2,2-difluoro-1,3-benzodioxol-5-yl)-5-methyl-1,3-thiazol-2(3H)-ylidene]-N,N-dimethylurea], the “calcium fluorescence response, modulator co-applied with agonist” value in experiment [1] (IMR-32 cells, Example 9 10 μM with agonist 4-(5-phenyl-[1,3,4]oxadiazol-2-yl)-1,4-diaza-bicyclo[3.2.2]nonane, FIG. 1) is on record as “evoked calcium fluorescence response”. The “calcium response, modulator alone” value in experiment [1] (IMR-32 cells, absence of α7 nAChR agonist, FIG. 2) is “did not trigger calcium responses”. Also, the pEC50 in experiment [1] (IMR-32 neuroblastoma cells, in presence of agonist 4-(5-phenyl-[1,3,4]oxadiazol-2-yl)-1,4-diaza-bicyclo[3.2.2]nonane, FIG. 2, read-out: EC50 value of the modulator (calcium fluorescence response)) was 5.52. In addition, the “ERK phosphorylation, concentration-response” value in experiment [2] is listed as “evoke concentration-dependent increases in ERK phosphorylation”.
Consider `CCN1C[C@]2(COC(=O)c3ccccc3N3C(=O)C[C@H](C)C3=O)CC[C@H](OC)[C@@]34[C@@H]5C[C@H]6[C@H](OC)[C@@H]5[C@](O)(C[C@@H]6OC)[C@@](O)([C@@H](OC)[C@H]23)[C@@H]14` [methyllycaconitine, reference compound], for which, in experiment [1] (IMR-32 cells), the “effect of α7 selective antagonist on agonist plus modulator calcium response” value was “abolishes response”.
